Data published in paper PMC10321576, “Cyclic peptides target the aromatic cage of a PHD-finger reader domain to modulate epigenetic protein function” (Chemical Science, 2023).
Peptide text beside a SMILES is read from it.

Molecular target: T1, KDM7B PHD-finger (Homo sapiens, UniProt Q9UPP1)
T1 construct: KDM7B 1-66; His-tag (C); made in house
T1 sequence (Q9UPP1 1-66 isoform Q9UPP1-2): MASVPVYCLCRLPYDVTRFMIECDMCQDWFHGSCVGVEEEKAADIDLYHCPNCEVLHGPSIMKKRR
Assay: Protein NMR 1H-15N HSQC chemical shift perturbation
Assay type: binding
Excerpt: To better elucidate OC9 interactions at a single residue level, we conducted protein NMR studies using isotopically labelled PHD-finger.[48] Comparison of ^1H–^15N HSQC spectra for isotopically labelled apo and OC9-bound protein (Fig. 4a), independently assigned using ^13C,^15N 3D experiments (Fig. S21, NMR ESI ^†), identified 24 out of 66 protein residues with significant (standard deviation, s > 1) chemical shift perturbation (CSP, Δδ) of their backbone amides (Fig. 4b).
(a) ^1H–^15N HSQC of KDM7B PHD-finger in the apo (black) or bound forms with OC9 (purple, 1 : 1) or H3_1–21K4me3 (green, 3 : 1). (b) ^1H and ^15N chemical shift changes for apo vs. + OC9 were combined and weighted to give chemical shift perturbation (CSP) (Δδ) values. Standard deviation (σ) of Δδ are indicated (>1 pink, >2 purple). (c) TALOS+ predicts similar secondary structure elements in apo and OC9-bound solution protein complexes (light grey) to those found in PDB ID 3KV4 (dark grey). […] (e) Shielded ^1H-NMR signals centred around −0.5 ppm belonging to the OC9 V10 γ-methyl groups are observed in some OC9–PHD complexes, but not in apo protein, or complexes with OC9 V10A and OC9 V10DV. The V10^OC9 γ-methyl signals have NOE interactions (black semi-circles) with the W29^PHD indole, which itself is shielded upon binding of OC9 (indicated by ΔδH values).

CSP His49, OC9 vs OC9 L3A (residue His49 amide, PHD+OC9 vs PHD+OC9 L3A): 0.0165
CSP His57 (residue His57 amide 1H-15N, Free PHD vs PHD+peptide): 0.0486
CSP His57, OC9 vs OC9 L3A (residue His57 amide, PHD+OC9 vs PHD+OC9 L3A): 0.0065
CSP Ile21 (residue Ile21 amide 1H-15N, Free PHD vs PHD+peptide): 0.1438
CSP Ile21, OC9 vs OC9 L3A (residue Ile21 amide, PHD+OC9 vs PHD+OC9 L3A): 0.0277
CSP Ile45 (residue Ile45 amide 1H-15N, Free PHD vs PHD+peptide): 0.1010
CSP Ile45, OC9 vs OC9 L3A (residue Ile45 amide, PHD+OC9 vs PHD+OC9 L3A): 0.0202
CSP Ile61 (residue Ile61 amide 1H-15N, Free PHD vs PHD+peptide): 0.1437
CSP Ile61, OC9 vs OC9 L3A (residue Ile61 amide, PHD+OC9 vs PHD+OC9 L3A): 0.0065
CSP Leu9 (residue Leu9 amide 1H-15N, Free PHD vs PHD+peptide): 0.1892
CSP Leu9, OC9 vs OC9 L3A (residue Leu9 amide, PHD+OC9 vs PHD+OC9 L3A): 0.0129
CSP Leu12 (residue Leu12 amide 1H-15N, Free PHD vs PHD+peptide): 0.1747
CSP Leu12, OC9 vs OC9 L3A (residue Leu12 amide, PHD+OC9 vs PHD+OC9 L3A): 0.0115
CSP Leu47 (residue Leu47 amide 1H-15N, Free PHD vs PHD+peptide): 0.1015
CSP Leu47, OC9 vs OC9 L3A (residue Leu47 amide, PHD+OC9 vs PHD+OC9 L3A): 0.0102
CSP Leu56 (residue Leu56 amide 1H-15N, Free PHD vs PHD+peptide): 0.0523
CSP Leu56, OC9 vs OC9 L3A (residue Leu56 amide, PHD+OC9 vs PHD+OC9 L3A): 0.0102
CSP Lys41 (residue Lys41 amide 1H-15N, Free PHD vs PHD+peptide): 0.1015
CSP Lys41, OC9 vs OC9 L3A (residue Lys41 amide, PHD+OC9 vs PHD+OC9 L3A): 0.0275
CSP Lys63 (residue Lys63 amide 1H-15N, Free PHD vs PHD+peptide): 0.1309
CSP Lys63, OC9 vs OC9 L3A (residue Lys63 amide, PHD+OC9 vs PHD+OC9 L3A): 0.0000
CSP Lys64 (residue Lys64 amide 1H-15N, Free PHD vs PHD+peptide): 0.0250
CSP Lys64, OC9 vs OC9 L3A (residue Lys64 amide, PHD+OC9 vs PHD+OC9 L3A): 0.0034
CSP Met20 (residue Met20 amide 1H-15N, Free PHD vs PHD+peptide): 0.3554
CSP Met20, OC9 vs OC9 L3A (residue Met20 amide, PHD+OC9 vs PHD+OC9 L3A): 0.0065
CSP Met25 (residue Met25 amide 1H-15N, Free PHD vs PHD+peptide): 0.7126
CSP Met25, OC9 vs OC9 L3A (residue Met25 amide, PHD+OC9 vs PHD+OC9 L3A): 0.0388
CSP Met62 (residue Met62 amide 1H-15N, Free PHD vs PHD+peptide): 0.0950
CSP Met62, OC9 vs OC9 L3A (residue Met62 amide, PHD+OC9 vs PHD+OC9 L3A): 0.0055
CSP Phe19 (residue Phe19 amide 1H-15N, Free PHD vs PHD+peptide): 0.3115
CSP Phe19, OC9 vs OC9 L3A (residue Phe19 amide, PHD+OC9 vs PHD+OC9 L3A): 0.0174
CSP Phe30 (residue Phe30 amide 1H-15N, Free PHD vs PHD+peptide): 0.2578
CSP Phe30, OC9 vs OC9 L3A (residue Phe30 amide, PHD+OC9 vs PHD+OC9 L3A): 0.0115
CSP Ser3 (residue Ser3 amide 1H-15N, Free PHD vs PHD+peptide): 0.0045
CSP Ser3, OC9 vs OC9 L3A (residue Ser3 amide, PHD+OC9 vs PHD+OC9 L3A): 0.0000
CSP Ser33 (residue Ser33 amide 1H-15N, Free PHD vs PHD+peptide): 0.1165
CSP Ser33, OC9 vs OC9 L3A (residue Ser33 amide, PHD+OC9 vs PHD+OC9 L3A): 0.0065
CSP Ser60 (residue Ser60 amide 1H-15N, Free PHD vs PHD+peptide): 0.0496
CSP Ser60, OC9 vs OC9 L3A (residue Ser60 amide, PHD+OC9 vs PHD+OC9 L3A): 0.0034
CSP Thr17 (residue Thr17 amide 1H-15N, Free PHD vs PHD+peptide): 0.2647
CSP Thr17, OC9 vs OC9 L3A (residue Thr17 amide, PHD+OC9 vs PHD+OC9 L3A): 0.0068
CSP Trp29 (residue Trp29 amide 1H-15N, Free PHD vs PHD+peptide): 0.3312
CSP Trp29, OC9 vs OC9 L3A (residue Trp29 amide, PHD+OC9 vs PHD+OC9 L3A): 0.0599
CSP Tyr7 (residue Tyr7 amide 1H-15N, Free PHD vs PHD+peptide): 0.2566
CSP Tyr7, OC9 vs OC9 L3A (residue Tyr7 amide, PHD+OC9 vs PHD+OC9 L3A): 0.0115
CSP Tyr14 (residue Tyr14 amide 1H-15N, Free PHD vs PHD+peptide): 0.3127
CSP Tyr14, OC9 vs OC9 L3A (residue Tyr14 amide, PHD+OC9 vs PHD+OC9 L3A): 0.0065
CSP Tyr48 (residue Tyr48 amide 1H-15N, Free PHD vs PHD+peptide): 0.8682
CSP Tyr48, OC9 vs OC9 L3A (residue Tyr48 amide, PHD+OC9 vs PHD+OC9 L3A): 0.0765
CSP Val4 (residue Val4 amide 1H-15N, Free PHD vs PHD+peptide): 0.0240
CSP Val4, OC9 vs OC9 L3A (residue Val4 amide, PHD+OC9 vs PHD+OC9 L3A): 0.0068
CSP Val6 (residue Val6 amide 1H-15N, Free PHD vs PHD+peptide): 0.1640
CSP Val6, OC9 vs OC9 L3A (residue Val6 amide, PHD+OC9 vs PHD+OC9 L3A): 0.0055
CSP Val16 (residue Val16 amide 1H-15N, Free PHD vs PHD+peptide): 0.3687
CSP Val16, OC9 vs OC9 L3A (residue Val16 amide, PHD+OC9 vs PHD+OC9 L3A): 0.0230
CSP Val35 (residue Val35 amide 1H-15N, Free PHD vs PHD+peptide): 0.0569
CSP Val35, OC9 vs OC9 L3A (residue Val35 amide, PHD+OC9 vs PHD+OC9 L3A): 0.0102
CSP Val37 (residue Val37 amide 1H-15N, Free PHD vs PHD+peptide): 0.0783
CSP Val37, OC9 vs OC9 L3A (residue Val37 amide, PHD+OC9 vs PHD+OC9 L3A): 0.0065
CSP Val55 (residue Val55 amide 1H-15N, Free PHD vs PHD+peptide): 0.0206
CSP Val55, OC9 vs OC9 L3A (residue Val55 amide, PHD+OC9 vs PHD+OC9 L3A): 0.0055
SMILES: CC(C)[C@@H]1NC(=O)[C@H](CO)NC(=O)[C@@H]2CCCN2C(=O)[C@H](Cc2ccc(O)cc2)NC(=O)[C@@H]2CCCN2C(=O)[C@H](Cc2c[nH]cn2)NC(=O)[C@H]([C@@H](C)O)NC(=O)[C@H](C)NC(=O)[C@H](Cc2ccc(O)cc2)NC(=O)[C@H](Cc2ccc(O)cc2)NC(=O)CSC[C@@H](C(N)=O)NC(=O)[C@H]([C@@H](C)O)NC(=O)[C@H](CCCNC(=N)N)NC(=O)[C@H](Cc2ccccc2)NC1=O [L3A] (HELM PEPTIDE1{[O=C(C[*:3])[*:2]].Y.Y.A.T.H.P.Y.P.S.V.F.R.T.C.[am]}$PEPTIDE1,PEPTIDE1,1:R3-15:R3$$$V2.0; C-terminus assumed)
